Counter-ions that a name gives are not always drawn. Like-named read-outs stand apart in the source and are kept apart here. Where a SMILES comes first, the peptide text is derived from it. [ ]: non-standard residue; d: D form. The star is where a group is joined. Sta = CC(C)C[C@H](N)[C@@H](O)CC(=O)O; Isovaleryl = CC(C)CC(=O)*
Columns and labels:
[1] = target: T1, SARS-CoV-2 PLpro (nsp3 1564–1878) (Severe acute respiratory syndrome coronavirus 2, UniProt P0DTD1); assay: biochemical; parameters: FRET-quenched peptide (Pro3) cleavage by PLpro, 10 min pre-incubation, slope over 20 min, normalised to no-compound control; settings: high concentration screen, read-out: % of control remaining
[2] = target: T1, SARS-CoV-2 PLpro (nsp3 1564–1878); assay: biochemical; parameters: FRET-quenched peptide (Pro3) cleavage by PLpro, 10 min pre-incubation, slope over 20 min, normalised to no-compound control; settings: low concentration screen, read-out: % of control remaining

`Cc1cccc(Nc2ccccc2C(=O)O)c1C` [Mefenamic acid] was tested, and the remaining activity at 3.75 µM ([1]; Well no.=1951) was 99.7% and the remaining activity at 1.25 µM ([2]; Well no.=1951) was 97.7%.
For `O=C(CBr)N1CC([N+](=O)[O-])([N+](=O)[O-])C1` [RRx-001], the remaining activity at 3.75 µM ([1]; Well no.=8632) was 98.9% and the remaining activity at 1.25 µM ([2]; Well no.=8632) was 105%.
`CCCCCCCCCCCCCCC[C@H](O)[C@H](N)CO` (racemic) [DL-erythro-Dihydrosphingosine] was tested, and the remaining activity at 3.75 µM ([1]; Well no.=628) was 93.6% and the remaining activity at 1.25 µM ([2]; Well no.=628) was 95.5%.
In the case of `O=c1[nH]cc(CO)c(=O)[nH]1` [5-Hydroxymethyluracil], the remaining activity at 3.75 µM ([1]; Well no.=6499) is reported as 101% and the remaining activity at 1.25 µM ([2]; Well no.=6499) is reported as 99.6%.
In the case of `CC[C@]1(O)C[C@@H]2CN(CCc3c([nH]c4ccccc34)[C@@](C(=O)OC)(c3cc4c(cc3OC)N(C)[C@H]3[C@@](O)(C(=O)OC)[C@H](OC(C)=O)[C@]5(CC)C=CCN6CC[C@]43[C@@H]65)C2)C1` [Vinblastine sulfate], the remaining activity at 3.75 µM ([1]; Well no.=3224) is reported as 97.9% and the remaining activity at 1.25 µM ([2]; Well no.=3224) is reported as 100%.
With `COc1ccc(C[C@H](NC(=O)[C@H](C)NC(=O)CN2CCOCC2)C(=O)N[C@@H](Cc2ccccc2)C(=O)[C@@]2(C)CO2)cc1` [ONX-0914 (PR-957)] the remaining activity at 3.75 µM ([1]; Well no.=9126) was 93.6% and the remaining activity at 1.25 µM ([2]; Well no.=9126) was 90%.
Work on `COc1cc2nccc(Oc3ccc(NC(=O)Nc4cc(C)on4)c(Cl)c3)c2cc1OC` [Tivozanib] yielded a remaining activity at 3.75 µM ([1]; Well no.=2932) of 99% and a remaining activity at 1.25 µM ([2]; Well no.=2932) of 96.1%.
In the case of `C[N+]1(C)C2CC(OC(=O)[C@H](CO)c3ccccc3)CC1C1OC12` (single isomer, unassigned; (-)) [(-)-Scopolamine methyl nitrate], the remaining activity at 3.75 µM ([1]; Well no.=1454) is reported as 96.6% and the remaining activity at 1.25 µM ([2]; Well no.=1454) is reported as 93.9%.
`O=C(O)c1ccccc1Nc1cccc(C(F)(F)F)c1` [Flufenamic acid] was tested, and the remaining activity at 3.75 µM ([1]; Well no.=1639) was 105% and the remaining activity at 1.25 µM ([2]; Well no.=1639) was 104%.
Work on `Nc1ccc(S(=O)(=O)Nc2cncc(Cl)n2)cc1` [Sulfaclozine (sodium)] yielded a remaining activity at 3.75 µM ([1]; Well no.=7458) of 93.3% and a remaining activity at 1.25 µM ([2]; Well no.=7458) of 96.2%.
`CCCCc1nc(Cl)c(CO)n1Cc1ccc(-c2ccccc2-c2nnn[nH]2)cc1` [Losartan potassium] showed a remaining activity at 3.75 µM ([1]; Well no.=2278) of 95.8% and a remaining activity at 1.25 µM ([2]; Well no.=2278) of 94.3%.
`C/C(=C\c1csc(C)n1)[C@@H]1C[C@@H]2O[C@]2(C)CCC[C@H](C)[C@H](O)[C@@H](C)C(=O)C(C)(C)[C@@H](O)CC(=O)N1` [Ixabepilone] gave a remaining activity at 3.75 µM ([1]; Well no.=6934) of 107% and a remaining activity at 1.25 µM ([2]; Well no.=6934) of 108%.
`CC(=O)Oc1cc(C(F)(F)F)ccc1C(=O)O` [Triflusal] was tested, and the remaining activity at 3.75 µM ([1]; Well no.=4942) was 96.4% and the remaining activity at 1.25 µM ([2]; Well no.=4942) was 98.7%.
`C=CC[C@@H]1/C=C(\C)C[C@H](C)C[C@H](OC)[C@H]2O[C@@](O)(C(=O)C(=O)N3CCCC[C@H]3C(=O)O[C@H](/C(C)=C/[C@@H]3CC[C@@H](O)[C@H](OC)C3)[C@H](C)[C@@H](O)CC1=O)[C@H](C)C[C@@H]2OC` [Tacrolimus (monohydrate)] gave a remaining activity at 3.75 µM ([1]; Well no.=6306) of 93.9%, a remaining activity at 3.75 µM ([1]; Well no.=7308) of 107% and a remaining activity at 1.25 µM ([2]; Well no.=6306) of 96.8%. For the same compound, the remaining activity at 1.25 µM ([2]; Well no.=7308) was 104%.
Compound `O=c1ccn([C@@H]2O[C@H](COP(=O)(O)OP(=O)(O)OP(=O)(O)OP(=O)(O)OC[C@H]3O[C@@H](n4ccc(=O)[nH]c4=O)[C@H](O)[C@@H]3O)[C@@H](O)[C@H]2O)c(=O)[nH]1` [Diquafosol (tetrasodium)] has a remaining activity at 3.75 µM ([1]; Well no.=8095) of 100%, a remaining activity at 3.75 µM ([1]; Well no.=8837) of 87.9% and a remaining activity at 1.25 µM ([2]; Well no.=8837) of 101%.
`C[C@@H]1O[C@@]2(CS1)CN1CCC2CC1` [Cevimeline (hydrochloride hemihydrate)] showed a remaining activity at 3.75 µM ([1]; Well no.=7571) of 90.9% and a remaining activity at 1.25 µM ([2]; Well no.=7571) of 91.5%.
With `CC(=O)O/N=C1/C(c2c(O)[nH]c3cc(Br)ccc23)=Nc2ccccc21` [GSK-3 Inhibitor X] the remaining activity at 3.75 µM ([1]; Well no.=2468) was 105% and the remaining activity at 1.25 µM ([2]; Well no.=2468) was 101%.
With `CC(C)[C@@]1(NC(=O)[C@@H]2C=C3c4cccc5[nH]cc(c45)C[C@H]3N(C)C2)O[C@@]2(O)[C@@H]3CCCN3C(=O)[C@H](Cc3ccccc3)N2C1=O` [Ergocristine] the remaining activity at 3.75 µM ([1]; Well no.=561) was 102% and the remaining activity at 1.25 µM ([2]; Well no.=561) was 105%.
For `C[C@@H]1O[C@@H](O[C@@H]2[C@@H](O)[C@H](O)[C@@H](CO)O[C@H]2c2c(O)cc(O)c3c(=O)cc(-c4ccc(O)cc4)oc23)[C@H](O)[C@H](O)[C@H]1O` [Vitexin-2-O-rhamnoside], the remaining activity at 3.75 µM ([1]; Well no.=3405) was 80.4% and the remaining activity at 1.25 µM ([2]; Well no.=3405) was 91.6%.
With `Nc1ncnc2n[nH]c(Nc3ccc(F)cc3)c12` [CGP 57380 - N3-(4-Fluorophenyl)-1H-pyrazolo-[3,4-d]pyrimidine-3,4-diamine] the remaining activity at 3.75 µM ([1]; Well no.=2624) was 92.7% and the remaining activity at 1.25 µM ([2]; Well no.=2624) was 92.8%.
For `CC(C)CC(=O)N[C@H](C(=O)N[C@H](C(=O)N[C@@H](CC(C)C)[C@@H](O)CC(=O)N[C@@H](C)C(=O)N[C@@H](CC(C)C)[C@@H](O)CC(=O)O)C(C)C)C(C)C` [Pepstatin A] (Isovaleryl-VV[Sta]A[Sta]-OH), the remaining activity at 3.75 µM ([1]; Well no.=8764) was 92.8% and the remaining activity at 1.25 µM ([2]; Well no.=8764) was 91.3%.
`Nc1cccc(S(=O)(=O)N2CCCN(S(=O)(=O)c3ccc4c(c3)OCCO4)CC2)c1` [DASA-58] showed a remaining activity at 3.75 µM ([1]; Well no.=8818) of 96.9% and a remaining activity at 1.25 µM ([2]; Well no.=8818) of 95.3%.
`CCCCCCC[N+](CC)(CC)CCCCc1ccc(Cl)cc1` [Clofilium tosylate] gave a remaining activity at 3.75 µM ([1]; Well no.=6882) of 90.5% and a remaining activity at 1.25 µM ([2]; Well no.=6882) of 91.1%.
With `O=C(c1cc(O)c(O)c([N+](=O)[O-])c1)c1ccccc1F` [Ro 41-0960] the remaining activity at 3.75 µM ([1]; Well no.=1162) was 104% and the remaining activity at 1.25 µM ([2]; Well no.=1162) was 102%.
In the case of `C[C@]12CC[C@@H]3c4ccc(O)cc4CC[C@H]3[C@@H]1CC[C@@H]2O` [Estradiol], the remaining activity at 3.75 µM ([1]; Well no.=2034) is reported as 96.6%, the remaining activity at 3.75 µM ([1]; Well no.=6449) is reported as 101% and the remaining activity at 1.25 µM ([2]; Well no.=2034) is reported as 99.3%. The remaining activity at 1.25 µM ([2]; Well no.=6449) was 98.6%.
`OB1OCc2cc(F)ccc21` [5-fluoro-2,1-benzoxaborol-1(3H)-ol] was tested, and the remaining activity at 3.75 µM ([1]; Well no.=5477) was 109% and the remaining activity at 1.25 µM ([2]; Well no.=5477) was 103%.
`CCC(C)(C)C(=O)N(O)Cc1ccccc1` [RIPA-56] gave a remaining activity at 3.75 µM ([1]; Well no.=6210) of 92.1% and a remaining activity at 1.25 µM ([2]; Well no.=6210) of 90.8%.
Compound `CC(C)[C@@H]1NC(=O)[C@H](CCCCN)NC(=O)[C@@H](Cc2c[nH]c3ccccc23)NC(=O)[C@H](Cc2ccc(O)cc2)NC(=O)[C@H](C)N(C)C(=O)[C@H](Cc2ccccc2)NC1=O` [Seglitide] has a remaining activity at 3.75 µM ([1]; Well no.=1452) of 97.2% and a remaining activity at 1.25 µM ([2]; Well no.=1452) of 97%.
Work on `CN(N=O)c1ccc(O)c(O)c1` [Me-3,4-dephostatin] yielded a remaining activity at 3.75 µM ([1]; Well no.=1131) of 91.3% and a remaining activity at 1.25 µM ([2]; Well no.=1131) of 95.2%.
`CC(C[N+](C)(C)C)OC(N)=O` (stereo not drawn) [Carbamyl-beta-methylcholine] gave a remaining activity at 3.75 µM ([1]; Well no.=1736) of 94.9% and a remaining activity at 1.25 µM ([2]; Well no.=1736) of 95.2%.
`Clc1ccc2nsnc2c1NC1=NCCN1` [Tizanidine.HCl] gave a remaining activity at 3.75 µM ([1]; Well no.=1563) of 98% and a remaining activity at 1.25 µM ([2]; Well no.=1563) of 98.4%.
